Results as given in US6555499B1, “Herbicide agent” (Syngenta Crop Protection, Inc., priority 1999, dated 2003).

How the values were obtained:
[1] = system: weeds; experiment: Post-emergence test, Example B1: weeds overall, in words; type: in vivo, Apera, Alopecurus, Avena; conditions: herbicide 25 g/ha, where combined cloquintocet-mexyl 6.25 g/ha, MERGE 1%
From the text: (§1) A standard soil is used as cultivation substrate.
(§2) The rate of application of herbicide is in each case 25 g/ha; the rate of application of cloquintocet-mexyl is 6.25 g/ha. As oil additive, MERGE® is used in a concentration of 1% by weight of the spray mixture.

[2] = system: Avena; experiment: Post-emergence test, Example B1: Avena; type: in vivo; conditions: greenhouse, herbicide 25 g/ha, where combined cloquintocet-mexyl 6.25 g/ha, MERGE 1% by weight of spray mixture, evaluated after 2 to 4 weeks, 100%=complete destruction
From the text: as §1, §2

[3] = system: Apera; experiment: Post-emergence test, Example B1: Apera; type: in vivo; conditions: greenhouse, herbicide 25 g/ha, where combined cloquintocet-mexyl 6.25 g/ha, MERGE 1% by weight of spray mixture, evaluated after 2 to 4 weeks, 100%=complete destruction
From the text: as §1, §2

[4] = system: Alopecurus; experiment: Post-emergence test, Example B1: Alopecurus; type: in vivo; conditions: greenhouse, herbicide 25 g/ha, where combined cloquintocet-mexyl 6.25 g/ha, MERGE 1% by weight of spray mixture, evaluated after 2 to 4 weeks, 100%=complete destruction
From the text: as §1, §2

Structure (SMILES)	Herbicidal action on the weeds (in words) [1]	Herbicidal action on Avena [2] [%]	Herbicidal action on Apera [3] [%]	Herbicidal action on Alopecurus [4] [%]
CCc1cc(C)cc(CC)c1C1C(=O)N2CCOCCN2C1=O [compound no. 1.007]	only slight to moderate herbicidal action	10	60	10
CCc1cc(C)cc(CC)c1-c1c(OC(=O)C(C)(C)C)n2n(c1=O)CCOCC2 [compound no. 1.008]	only slight to moderate herbicidal action	20	25	20
